Assay [1] concerns the target Insulin-like growth factor 1 receptor (Homo sapiens, UniProt P08069). Nature of the assay: Inhibition of IGF1R.
In the next assay the test system is MCF7. The experiment in a line: Inhibition of IGF1 mediated cell growth in MCF7 cells. The settings on record: Homo sapiens.
Assay [2] addresses T1, Polyunsaturated fatty acid lipoxygenase ALOX15 (Homo sapiens, UniProt P16050).
T1 sequence (P16050 whole entry): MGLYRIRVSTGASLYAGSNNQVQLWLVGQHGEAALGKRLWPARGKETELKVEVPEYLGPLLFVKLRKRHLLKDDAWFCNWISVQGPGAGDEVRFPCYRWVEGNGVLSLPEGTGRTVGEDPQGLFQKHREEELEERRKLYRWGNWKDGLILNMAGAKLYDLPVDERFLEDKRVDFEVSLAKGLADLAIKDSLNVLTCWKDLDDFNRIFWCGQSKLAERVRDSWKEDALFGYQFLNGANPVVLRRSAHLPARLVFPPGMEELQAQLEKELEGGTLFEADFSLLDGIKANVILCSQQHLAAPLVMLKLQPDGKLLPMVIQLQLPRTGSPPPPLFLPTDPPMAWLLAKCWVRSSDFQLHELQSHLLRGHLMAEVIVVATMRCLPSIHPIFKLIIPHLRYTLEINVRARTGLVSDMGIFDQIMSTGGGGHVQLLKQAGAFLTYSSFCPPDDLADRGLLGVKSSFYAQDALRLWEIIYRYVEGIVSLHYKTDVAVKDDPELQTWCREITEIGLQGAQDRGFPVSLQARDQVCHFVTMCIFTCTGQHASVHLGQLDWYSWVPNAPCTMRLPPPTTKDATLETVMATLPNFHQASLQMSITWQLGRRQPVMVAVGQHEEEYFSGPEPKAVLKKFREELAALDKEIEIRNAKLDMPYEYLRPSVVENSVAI

We go through 9 compounds from ChEMBL document CHEMBL1139987 (Bioorg Med Chem Lett, 2007).

Sequence of Insulin-like growth factor 1 receptor (P08069 31-736 limits assumed): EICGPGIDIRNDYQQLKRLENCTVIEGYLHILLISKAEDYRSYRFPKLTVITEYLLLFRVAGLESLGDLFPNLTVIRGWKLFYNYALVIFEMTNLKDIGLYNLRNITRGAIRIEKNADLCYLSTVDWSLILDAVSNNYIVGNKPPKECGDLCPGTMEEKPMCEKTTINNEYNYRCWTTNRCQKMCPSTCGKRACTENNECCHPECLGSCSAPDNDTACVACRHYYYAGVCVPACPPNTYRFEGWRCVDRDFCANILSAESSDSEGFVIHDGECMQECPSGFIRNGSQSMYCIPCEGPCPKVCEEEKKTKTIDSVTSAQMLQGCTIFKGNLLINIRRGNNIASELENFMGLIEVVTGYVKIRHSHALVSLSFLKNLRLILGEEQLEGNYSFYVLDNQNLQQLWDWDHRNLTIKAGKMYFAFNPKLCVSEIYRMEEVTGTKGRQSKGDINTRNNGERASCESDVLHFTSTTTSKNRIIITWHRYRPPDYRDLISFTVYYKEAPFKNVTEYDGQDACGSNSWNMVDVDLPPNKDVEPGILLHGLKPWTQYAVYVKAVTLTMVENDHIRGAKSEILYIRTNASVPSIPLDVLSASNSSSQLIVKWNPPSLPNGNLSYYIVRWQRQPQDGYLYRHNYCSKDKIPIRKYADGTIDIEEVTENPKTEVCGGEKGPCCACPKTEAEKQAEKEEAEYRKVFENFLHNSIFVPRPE
Sequence of Insulin-like growth factor 1 receptor (P08069 741-1367 limits assumed): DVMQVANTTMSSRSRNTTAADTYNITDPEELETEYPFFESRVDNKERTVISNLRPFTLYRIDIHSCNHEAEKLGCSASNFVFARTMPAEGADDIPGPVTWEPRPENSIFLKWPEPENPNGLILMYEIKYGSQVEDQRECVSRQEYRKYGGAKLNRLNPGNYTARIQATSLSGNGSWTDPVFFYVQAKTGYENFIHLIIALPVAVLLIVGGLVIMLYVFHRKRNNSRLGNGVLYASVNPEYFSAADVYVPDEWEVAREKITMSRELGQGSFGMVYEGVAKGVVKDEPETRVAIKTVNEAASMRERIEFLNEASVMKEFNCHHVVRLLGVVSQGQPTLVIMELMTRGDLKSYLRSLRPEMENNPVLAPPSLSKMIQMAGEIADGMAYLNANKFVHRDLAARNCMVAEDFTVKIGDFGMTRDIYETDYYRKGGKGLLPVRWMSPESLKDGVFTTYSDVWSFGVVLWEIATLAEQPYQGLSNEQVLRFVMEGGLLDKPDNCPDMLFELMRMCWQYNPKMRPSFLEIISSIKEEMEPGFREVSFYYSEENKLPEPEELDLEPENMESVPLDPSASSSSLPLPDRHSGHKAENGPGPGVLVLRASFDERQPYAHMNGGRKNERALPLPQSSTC

With `Oc1ccc(CCCCc2ccc(Cl)c(Cl)c2)cc1O`, the values for the IC50 (in assay [1]; with MCF7) were 1 µM and 21.5 µM, respectively.
As for `Oc1ccc(CCCCc2ccccc2)cc1O`, the IC50 is 7.3 µM in assay [2] and 11.2 µM in the assay on MCF7.
For `COc1ccc(CCCCc2ccc(O)c(O)c2)cc1`, in the assay on MCF7, the 50% inhibitory concentration (IC50) was found to be 15.7 µM.
On to `Oc1ccc(CCCCc2ccc(O)c(O)c2)cc1O`, for which the IC50 in assay [2] came to 3.9 µM; in assay [1], 0.6 µM; with MCF7 it was 25.4 µM.
Turning to `Oc1cc2c(cc1O)C(c1ccccc1)CCC2` (stereo not drawn), the IC50 in assay [1] is 1 µM; in the assay on MCF7, 12.3 µM.
Consider `Cc1ccc(CCCCc2ccc(O)c(O)c2)cc1`, for which the IC50 in assay [1] amounted to 0.8 µM; with MCF7 it was 15.1 µM.
Consider `CC(Cc1ccc(O)c(O)c1)C(C)Cc1ccc(O)c(O)c1` (stereo not drawn) [NORDIHYDROGUAIARETIC ACID], for which the 50% inhibitory concentration (IC50) with MCF7 was 24.6 µM.
As to `Oc1ccc(CCCCc2ccc(O)c(O)c2)cc1`, the figures for the IC50 (in assay [2]; in assay [1]; in the assay with MCF7) were 9.4 µM, 1 µM and 36.2 µM, respectively.
On to `Oc1ccc(CCCCc2ccc(Cl)cc2)cc1O`, for which the results for the IC50 (in assay [1]; with MCF7) were 0.8 µM and 13.4 µM, respectively.

By IC50 is commonly meant the concentration that inhibits the measured activity by half.
